The record followed here is US10996170B2, “Device and method for imaging shortwave infrared fluorescence” (Massachusetts Institute of Technology, priority 2016, dated 2021).

This series relates to liver. Put plainly: SWIR imaging of hepatobiliary clearance in vivo. To be noted: 1.7 mg/kg intravenously; mouse. The method, then: When injected into a living system, indocyanine green is metabolized by the liver and excreted by the liver and bile ducts by a process called hepatobiliary clearance. This process was observed, noninvasively, by injecting a solution of indocyanine green intravenously into a mouse and using an SWIR imaging system as described herein to observe the fluorescence of indocyanine green. The dye was injected at a dose of 1.7 mg/kg which is below the maximum recommended dose of indocyanine green in humans. […] Despite the fact that 1500 nm is far from the peak emission of indocyanine green, there is sufficient emission intensity from the tail of the emission peak in this wavelength region to obtain a SWIR fluorescence image. Separately, hepatobiliary excretion of ICG into the small intestine in a mouse was also imaged using a near video rate imaging of 19.7 frames per second using a 1200 nm long-pass filter, which enabled capturing the peristaltic movements of the small intestine. Although the frame rate was slower, 2.0 frames per second, it was possible to image the ICG clearance using a 1500 nm long-pass filter, capturing wavelengths between roughly 1500 and 1620 nm.

As to `CC1(C)C(/C=C/C=C/C=C/C=C2\N(CCCCS(=O)(=O)O)c3ccc4ccccc4c3C2(C)C)=[N+](CCCCS(=O)(=O)[O-])c2ccc3ccccc3c21` [ICG, indocyanine green], the “tissue distribution observed by SWIR fluorescence” value is reported as “Accumulation of indocyanine green in the liver”.
